Several values for one entry are separate records, joined by “and”; a condition that tells them apart may be missing. Equal values may be shown once. Marks after values point to notes of the source that are not given here.
Key:
Type in all cases: in vivo, chicken
[1] = test system: Fertilized broiler eggs (Cobb 500); assay: NR concentration on avian embryonic myogenesis, d 19 embryo morphometrics (Example II); conditions: 100 μl into yolk d 10, d 19 embryos
Protocol: Fertilized broiler eggs (n=60; Cobb 500) were randomly assigned to 1 of 4 treatments: 0.0, 250, 500, or 1,000 mM NR in sterile saline. At day 10 of incubation, 100 μl of treatment solution was injected into the egg yolk. Eggs were incubated at 37±3° C. and a relative humidity of 40±2%. At day 19 of incubation, embryos were euthanized by prolonged exposure to CO2 gas and decapitation. Measurements including: embryo weight; crown-rump length; chest circumference (CC); and left Pectoralis major (PM) weight, length, width, and depth were collected.

fertilized broiler eggs = assay: Immunohistochemical analysis of muscle fiber CSA during in ovo myogenesis (Example 1); conditions: 100 μl 250 mM NR in ovo at 11 d
Protocol: At 11-days of incubation, 60 fertilized broiler eggs were randomly assigned to completely randomized design with a 2×2 factorial arrangement. Factor 1 comprised treatment, with eggs injected with 100 μl of 0.9% sterile saline solution (NRNeg) or 250 mM NR in sterile saline (NRPos). Factor 2 comprised injection location, with treatments injected into the yolk or albumen. Eggs were incubated at 37±3° C. and a relative humidity of 40±2% for 7 days. Humidity was increased to 60±2% at the same temperature for the final 3 days of incubation. Twenty-four hours after hatching, chicks were euthanized by exposure to CO2 and decapitation. Measurements including chick weight and left Pectoralis major weight, length, and depth were taken for analysis. Immunohistochemical analysis was conducted to determine if NR supplementation increased muscle fiber cross-sectional area (CSA) during in ovo myogenesis. There were no Treatment×Location or Treatment and Location main effects for muscle fiber CSA (P>0.06). […] This is desired heavily in meat producing animals.

[2] = test system: Fertilized broiler eggs (Cobb 500); assay: In ovo feeding of NR into yolk or albumen: hatched chick body and pectoralis major morphometrics (Example VI); conditions: hatched chicks
Protocol: Fertilized broiler eggs (N=156; Cobb 500; Cobb-Vantress, Siloam Springs, Ark.) with an average weight of 70.3 g were transported in coolers to the Kansas State University Muscle Biology Laboratory (Manhattan, Kans.). Upon arrival, egg weights were recorded, eggs were ordered by weight, and within each 4 egg strata, eggs were randomly assigned to treatments within a 2×2 factorial arrangement. Factor 1 was NR treatment with eggs receiving 0 or 250 mM NR (ChromaDex, Los Angeles, Calif.). Factor 2 was injection location, with treatments injected into either the yolk or albumen. After treatment assignment, eggs were positioned with equal treatment representation onto trays and placed in an incubator (Sportsman 1502; GQF Manufacturing Company Inc., Savannah, Ga.) set to operate at a temperature of 37° C. and a relative humidity of 40±2% for the first 18 d of incubation. The incubator rotated hourly to reposition eggs, and trays were rotated daily throughout the incubator to account for variation in temperature and humidity. Tray weights were recorded each day to determine egg weight loss percentage with a target weight loss of 0.67% per day.
At d 10 of incubation, NR with the equivalent weight of 250 mM was added to 0.9% sterile saline and covered with foil to prevent exposure to light. Sets of 20 eggs representing equal treatment numbers were removed from the incubator, candled to determine location of the yolk and albumen, and the injection site was cleaned with 70% ethanol. Eggs were turned at a 90° angle and a 2.54-cm, 20-guage hypodermic needle was used to create an opening in the shell at the proper injection site. The needle was inserted approximately 1 cm into injection site and 100 μl of the 250 mM NR solution or 0.9% saline solution was injected into the egg. A 1-cm^2 portion of medical tape (Nexcare; 3M, Maplewood, Minn.) was positioned over the injection location and eggs were returned to the incubator.
On d 18 of incubation, the relative humidity of the incubator was increased to 60±2% and eggs were placed into hatching boxes at the bottom of the incubator. As chicks began to hatch, they were removed from the incubator, marked for treatment, and relocated to a box positioned underneath a heat lamp. Approximately 12 to 24 h after hatch, chicks were euthanized by prolonged exposure to CO2 gas and decapitation. Chick weights were recorded, and digital calipers (Traceable Digital Calipers; Fisher Scientific, Pittsburg, Pa.) were utilized to measure crown to rump length, head width, head length. Head and chest circumference were also collected by wrapping a string around the designated area and determining the length against a ruler.
Chick carcasses were sprayed with 70% ethanol and the skin and feathers were pulled back to reveal the pectoralis major (PM) muscles. Prior to PM muscles removal, chest width and length were measured using digital calipers. The left and right PM muscles were removed, careful to not remove the pectoralis minor muscles. The left PM was weighed and dimensions were collected using digital calipers, including length, width, and depth. This muscle was positioned onto a tongue depressor and placed into a −80° C. freezer, where it was stored until it was used for cryosectioning. The heart and liver were also removed, weighed, and discarded.

[3] = 250 mM NR, 100 μl into albumen d 10
[4] = 250 mM NR, 100 μl into yolk d 10

SMILES: NC(=O)c1ccc[n+]([C@@H]2O[C@H](CO)[C@@H](O)[C@H]2O)c1 [Nicotinamide riboside, nicotinamide riboside]
- Body weight ([1]; 250 mM NR): 46.42 g
- Chest circumference ([1]; 250 mM NR): 6.0^a,b cm
- Crown to rump length ([1]; 250 mM NR): 83.69^a mm
- Head circumference ([1]; 250 mM NR): 5.3^a cm
- Head length ([1]; 250 mM NR): 17.70 mm
- Head width ([1]; 250 mM NR): 15.42 mm
- Organ weight, heart ([1]; 250 mM NR): 0.23 g
- Organ weight, liver ([1]; 250 mM NR): 0.74 g
- Pectoralis major length ([1]; 250 mM NR): 16.73^b mm
- Pectoralis major maximum thickness ([1]; 250 mM NR): 2.56^b mm
- Pectoralis major weight ([1]; 250 mM NR): 0.13^a,b g
- Pectoralis major width ([1]; 250 mM NR): 4.90^a,b mm
- Body weight ([1]; 500 mM NR): 46.25 g
- Chest circumference ([1]; 500 mM NR): 6.3^b cm
- Crown to rump length ([1]; 500 mM NR): 85.14^a mm
- Head circumference ([1]; 500 mM NR): 5.6^b cm
- Head length ([1]; 500 mM NR): 17.60 mm
- Head width ([1]; 500 mM NR): 15.49 mm
- Organ weight, heart ([1]; 500 mM NR): 0.23 g
- Organ weight, liver ([1]; 500 mM NR): 0.72 g
- Pectoralis major length ([1]; 500 mM NR): 17.51^b mm
- Pectoralis major maximum thickness ([1]; 500 mM NR): 2.36^a,b mm
- Pectoralis major weight ([1]; 500 mM NR): 0.16^b g
- Pectoralis major width ([1]; 500 mM NR): 5.32^b mm
- Body weight ([1]; 1,000 mM NR): 45.97 g
- Chest circumference ([1]; 1,000 mM NR): 6.6^b cm
- Crown to rump length ([1]; 1,000 mM NR): 88.20^b mm
- Head circumference ([1]; 1,000 mM NR): 5.7^b cm
- Head length ([1]; 1,000 mM NR): 17.98 mm
- Head width ([1]; 1,000 mM NR): 15.69 mm
- Organ weight, heart ([1]; 1,000 mM NR): 0.24 g
- Organ weight, liver ([1]; 1,000 mM NR): 0.67 g
- Pectoralis major length ([1]; 1,000 mM NR): 17.44^b mm
- Pectoralis major maximum thickness ([1]; 1,000 mM NR): 2.64^b mm
- Pectoralis major weight ([1]; 1,000 mM NR): 0.15^b g
- Pectoralis major width ([1]; 1,000 mM NR): 5.61^b mm
- Muscle fiber cross-sectional area (CSA) (fertilized broiler eggs): did not increase
- Increase of PM weight ([2]; 250 mM NR into the yolk sac): 38%
- Increase of PM length ([2]; 250 mM NR into the yolk sac, listed as NR): 22% and 21%
- Body weight [2, 3]: 43.19 g
- Chest length [2, 3]: 21.98 mm
- Chest width [2, 3]: 16.57 mm
- Crown-rump length [2, 3]: 96.14 mm
- Head circumference [2, 3]: 32.14 mm
- Head length [2, 3]: 21.29 mm
- Head width [2, 3]: 15.56 mm
- Heart weight [2, 3]: 0.35 g
- Liver weight [2, 3]: 1.05 g
- Pectoralis major depth [2, 3]: 2.43 mm
- Pectoralis major length [2, 3]: 18.68^b mm
- Pectoralis major weight [2, 3]: 0.14^a g
- Pectoralis major width [2, 3]: 4.81 mm
- Body weight [2, 4]: 44.02 g
- Chest length [2, 4]: 22.68 mm
- Chest width [2, 4]: 17.69 mm
- Crown-rump length [2, 4]: 89.36 mm
- Head circumference [2, 4]: 31.49 mm
- Head length [2, 4]: 21.73 mm
- Head width [2, 4]: 15.45 mm
- Heart weight [2, 4]: 0.36 g
- Liver weight [2, 4]: 1.11 g
- Pectoralis major depth [2, 4]: 2.65 mm
- Pectoralis major length [2, 4]: 20.74^c mm
- Pectoralis major weight [2, 4]: 0.18^b g
- Pectoralis major width [2, 4]: 5.21 mm
- Increase of PM width ([2]; 250 mM NR, regardless of injection location): 9%
- Increase of PM depth ([2]; 250 mM NR, regardless of injection location, listed as NR): 11% and 10%
